Measured values from ChEMBL document CHEMBL4196025 (Eur J Med Chem, 2018).
The source made the active and inactive calls. No cut-off for these calls is given here.

Assays:
Cholinesterase [1] = biological target: Cholinesterase (Equus caballus, UniProt P81908)
Description: Inhibition of equine serum BCHE using butyrylthiocholine iodide as substrate preincubated for 5 mins followed by DTNB addition for 5 mins and subsequent addition of substrate measured after 3 mins by Ellman's method

Acetylcholinesterase [2] = biological target: Acetylcholinesterase (Electrophorus electricus, UniProt O42275); test: Inhibition of electric eel AChE using acetylthiocholine iodide as substrate preincubated for 5 mins followed by DTNB addition for 5 mins and subsequent addition of substrate measured after 3 mins by Ellman's method
Sequence of Acetylcholinesterase (Electrophorus electricus, UniProt O42275) (O42275 whole entry): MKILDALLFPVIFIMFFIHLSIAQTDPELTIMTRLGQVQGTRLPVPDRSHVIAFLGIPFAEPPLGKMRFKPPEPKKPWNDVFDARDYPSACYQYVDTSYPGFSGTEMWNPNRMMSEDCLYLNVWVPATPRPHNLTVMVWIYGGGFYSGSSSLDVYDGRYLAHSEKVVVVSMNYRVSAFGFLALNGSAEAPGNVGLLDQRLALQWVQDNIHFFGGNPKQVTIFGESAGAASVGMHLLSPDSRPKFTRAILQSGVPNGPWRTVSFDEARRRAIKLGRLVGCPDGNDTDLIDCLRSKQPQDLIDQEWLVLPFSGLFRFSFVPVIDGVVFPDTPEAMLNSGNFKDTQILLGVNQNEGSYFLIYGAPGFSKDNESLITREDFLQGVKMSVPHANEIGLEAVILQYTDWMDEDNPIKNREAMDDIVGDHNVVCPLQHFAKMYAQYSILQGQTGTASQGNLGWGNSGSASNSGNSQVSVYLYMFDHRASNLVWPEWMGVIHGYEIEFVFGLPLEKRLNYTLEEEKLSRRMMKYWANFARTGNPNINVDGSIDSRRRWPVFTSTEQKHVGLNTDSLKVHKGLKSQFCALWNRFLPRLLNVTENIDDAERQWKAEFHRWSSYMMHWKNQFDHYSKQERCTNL

Acetylcholinesterase [3] = biological target: T1, Acetylcholinesterase (Homo sapiens, UniProt P22303); test: Inhibition of human erythrocyte AChE using acetylthiocholine iodide as substrate preincubated for 5 mins followed by DTNB addition for 5 mins and subsequent addition of substrate measured after 3 mins by Ellman's method
T1 sequence (P22303 whole entry): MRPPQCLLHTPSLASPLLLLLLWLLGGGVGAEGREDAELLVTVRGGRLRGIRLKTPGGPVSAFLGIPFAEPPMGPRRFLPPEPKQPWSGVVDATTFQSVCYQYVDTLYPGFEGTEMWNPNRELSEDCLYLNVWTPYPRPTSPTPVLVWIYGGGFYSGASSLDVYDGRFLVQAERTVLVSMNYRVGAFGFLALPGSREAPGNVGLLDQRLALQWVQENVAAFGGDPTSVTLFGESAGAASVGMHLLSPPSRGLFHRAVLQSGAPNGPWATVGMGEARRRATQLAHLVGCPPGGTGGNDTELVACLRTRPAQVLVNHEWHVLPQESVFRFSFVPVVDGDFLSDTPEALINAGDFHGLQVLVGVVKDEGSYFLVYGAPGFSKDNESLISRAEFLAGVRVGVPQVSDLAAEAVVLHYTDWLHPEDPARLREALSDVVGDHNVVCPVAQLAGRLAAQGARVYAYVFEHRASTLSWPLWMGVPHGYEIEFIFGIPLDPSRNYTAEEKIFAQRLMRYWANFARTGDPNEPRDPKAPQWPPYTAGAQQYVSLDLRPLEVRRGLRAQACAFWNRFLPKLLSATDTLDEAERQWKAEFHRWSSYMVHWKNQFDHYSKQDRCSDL

Cholinesterase [4] = biological target: Cholinesterase (Homo sapiens, UniProt P06276); test: Inhibition of human serum BCHE using butyrylthiocholine iodide as substrate preincubated for 5 mins followed by DTNB addition for 5 mins and subsequent addition of substrate measured after 3 mins by Ellman's method
Sequence of Cholinesterase (Homo sapiens, UniProt P06276) (P06276 whole entry): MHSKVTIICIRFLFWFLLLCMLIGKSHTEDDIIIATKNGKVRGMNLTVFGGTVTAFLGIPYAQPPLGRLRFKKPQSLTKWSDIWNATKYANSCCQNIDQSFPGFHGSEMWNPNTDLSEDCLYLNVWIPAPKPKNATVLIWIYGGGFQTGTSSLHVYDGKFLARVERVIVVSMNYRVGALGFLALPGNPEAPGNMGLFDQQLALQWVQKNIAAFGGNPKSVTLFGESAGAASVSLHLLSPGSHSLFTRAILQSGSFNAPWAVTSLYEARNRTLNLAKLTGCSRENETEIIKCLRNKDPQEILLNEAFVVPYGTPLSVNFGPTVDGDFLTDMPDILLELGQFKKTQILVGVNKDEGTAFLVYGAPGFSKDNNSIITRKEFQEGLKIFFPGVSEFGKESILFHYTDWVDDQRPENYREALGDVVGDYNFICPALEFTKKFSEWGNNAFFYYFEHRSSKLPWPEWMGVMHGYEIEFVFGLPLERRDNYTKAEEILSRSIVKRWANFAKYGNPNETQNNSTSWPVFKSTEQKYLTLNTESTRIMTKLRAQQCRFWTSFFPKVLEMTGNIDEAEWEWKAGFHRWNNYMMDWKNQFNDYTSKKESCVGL

PC-12 [5] = test: Protection against CoCl2-induced damage in rat PC12 cells assessed as cell viability at 10 uM preincubated for 36 hrs followed by CoCl2 addition measured after 12 hrs by MTT assay (reference value: 51.2%); type: functional; settings: read-out: Activity
PC-12 [6] = test: Protection against CoCl2-induced damage in rat PC12 cells assessed as cell viability at 2.5 uM preincubated for 36 hrs followed by CoCl2 addition measured after 12 hrs by MTT assay (reference value: 51.2%); type: functional; settings: read-out: Activity
[7] = biological target: Amyloid-beta precursor protein (Homo sapiens) (UniProt P05067); test: Inhibition of self-induced amyloid beta (1 to 42) (unknown origin) aggregation up to 100 uM measured after 24 hrs by ThT fluorescence assay
Sequence of Amyloid-beta precursor protein (Homo sapiens) (P05067 whole entry): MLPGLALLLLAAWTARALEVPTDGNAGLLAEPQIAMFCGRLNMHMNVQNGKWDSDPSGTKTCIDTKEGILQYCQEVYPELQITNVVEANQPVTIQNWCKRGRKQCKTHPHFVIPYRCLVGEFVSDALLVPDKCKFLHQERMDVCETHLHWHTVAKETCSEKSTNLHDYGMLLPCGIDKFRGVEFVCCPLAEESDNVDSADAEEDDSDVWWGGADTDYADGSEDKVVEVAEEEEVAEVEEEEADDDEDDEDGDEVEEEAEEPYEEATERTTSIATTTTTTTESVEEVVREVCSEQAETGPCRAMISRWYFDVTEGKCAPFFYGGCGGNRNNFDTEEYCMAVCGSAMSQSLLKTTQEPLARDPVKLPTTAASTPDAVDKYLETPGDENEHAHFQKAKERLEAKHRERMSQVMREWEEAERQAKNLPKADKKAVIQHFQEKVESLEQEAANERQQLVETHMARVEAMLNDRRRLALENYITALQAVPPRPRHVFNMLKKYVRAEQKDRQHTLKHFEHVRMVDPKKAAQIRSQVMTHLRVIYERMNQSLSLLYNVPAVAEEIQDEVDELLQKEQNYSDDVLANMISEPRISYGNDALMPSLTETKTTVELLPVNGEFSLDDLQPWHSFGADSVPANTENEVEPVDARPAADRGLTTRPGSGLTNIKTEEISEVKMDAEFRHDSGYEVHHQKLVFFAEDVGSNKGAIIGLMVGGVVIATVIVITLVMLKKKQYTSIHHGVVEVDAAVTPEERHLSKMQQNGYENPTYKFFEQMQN

PC-12 [8] = test: Protection against CoCl2-induced damage in rat PC12 cells assessed as cell viability at 5 uM preincubated for 36 hrs followed by CoCl2 addition measured after 12 hrs by MTT assay (reference value: 51.2%); type: functional; settings: read-out: Activity
Acetylcholinesterase [9] = biological target: T1, Acetylcholinesterase; test: Potency index, ratio of tacrine IC50 to compound IC50 for inhibition of human erythrocyte AChE
Acetylcholinesterase [10] = biological target: T1, Acetylcholinesterase; test: Mixed-type inhibition of human erythrocyte AChE at 2.5 to 10 nM using varying levels of acetylthiocholine iodide as substrate by Lineweaver-Burk plot analysis
in vitro [11] = settings: human, HepG2 cells
Description: Cytotoxicity against human HepG2 cells assessed as cell viability at 5 uM after 24 hrs by MTT assay relative to control

[12] = biological target: Acetylcholinesterase (Electrophorus electricus) (UniProt O42275); test: Mixed-type inhibition of electric eel AChE at 2.5 to 10 nM using varying levels of acetylthiocholine iodide as substrate by Lineweaver-Burk plot analysis
Sequence of Acetylcholinesterase (Electrophorus electricus) (O42275 24-633 limits assumed): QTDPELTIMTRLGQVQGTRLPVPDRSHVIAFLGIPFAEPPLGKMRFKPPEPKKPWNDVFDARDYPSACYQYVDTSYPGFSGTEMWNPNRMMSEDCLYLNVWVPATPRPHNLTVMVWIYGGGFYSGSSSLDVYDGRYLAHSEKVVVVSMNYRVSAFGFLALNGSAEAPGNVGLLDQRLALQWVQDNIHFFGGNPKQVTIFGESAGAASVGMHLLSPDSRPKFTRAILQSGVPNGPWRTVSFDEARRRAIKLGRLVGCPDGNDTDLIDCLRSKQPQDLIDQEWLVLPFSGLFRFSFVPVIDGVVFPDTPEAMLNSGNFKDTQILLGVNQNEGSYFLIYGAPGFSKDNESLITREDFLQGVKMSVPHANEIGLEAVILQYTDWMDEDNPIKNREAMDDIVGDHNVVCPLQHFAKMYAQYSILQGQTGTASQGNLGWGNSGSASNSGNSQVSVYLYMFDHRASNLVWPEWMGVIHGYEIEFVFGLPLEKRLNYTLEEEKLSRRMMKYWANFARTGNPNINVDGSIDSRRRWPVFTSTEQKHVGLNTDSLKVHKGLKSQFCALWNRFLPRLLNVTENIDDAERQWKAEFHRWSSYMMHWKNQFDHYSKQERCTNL

in vitro [13] = settings: human, HepG2 cells; remark: listed apart in the source
Description: Cytotoxicity against human HepG2 cells assessed as cell viability at 1.25 uM after 24 hrs by MTT assay relative to control

in vitro [14] = settings: human, HepG2 cells; remark: listed apart in the source
Description: Cytotoxicity against human HepG2 cells assessed as cell viability at 2.5 uM after 24 hrs by MTT assay relative to control

[15] = Cytotoxicity against NGF-differentiated rat PC12 cells assessed as cell viability at 10 uM after 48 hrs by MTT assay relative to control; type: cell-based, PC-12; settings: read-out: Activity
[16] = biological target: Amyloid-beta precursor protein (Homo sapiens) (UniProt P05067); test: Inhibition of self-induced amyloid beta (1 to 42) (unknown origin) aggregation measured after 24 hrs by ThT fluorescence assay
in vitro [17] = settings: human, HepG2 cells; remark: listed apart in the source
Description: Cytotoxicity against human HepG2 cells assessed as cell viability at 10 uM after 24 hrs by MTT assay relative to control

[18] = biological target: Amyloid-beta precursor protein (Homo sapiens) (UniProt P05067); test: Inhibition of self-induced amyloid beta (1 to 42) (unknown origin) aggregation at 100 uM measured after 24 hrs by ThT fluorescence assay relative to control
PC-12 [19] = test: Protection against CoCl2-induced damage in rat PC12 cells assessed as increase in cell viability preincubated for 36 hrs followed by CoCl2 addition measured after 12 hrs by MTT assay; type: functional, cell-based
[20] = biological target: Amyloid-beta precursor protein (Homo sapiens) (UniProt P05067); test: Inhibition of self-induced amyloid beta (1 to 42) (unknown origin) aggregation at 20 uM measured after 24 hrs by ThT fluorescence assay relative to control

Sequence of Cholinesterase (Equus caballus, UniProt P81908) (P81908 whole entry): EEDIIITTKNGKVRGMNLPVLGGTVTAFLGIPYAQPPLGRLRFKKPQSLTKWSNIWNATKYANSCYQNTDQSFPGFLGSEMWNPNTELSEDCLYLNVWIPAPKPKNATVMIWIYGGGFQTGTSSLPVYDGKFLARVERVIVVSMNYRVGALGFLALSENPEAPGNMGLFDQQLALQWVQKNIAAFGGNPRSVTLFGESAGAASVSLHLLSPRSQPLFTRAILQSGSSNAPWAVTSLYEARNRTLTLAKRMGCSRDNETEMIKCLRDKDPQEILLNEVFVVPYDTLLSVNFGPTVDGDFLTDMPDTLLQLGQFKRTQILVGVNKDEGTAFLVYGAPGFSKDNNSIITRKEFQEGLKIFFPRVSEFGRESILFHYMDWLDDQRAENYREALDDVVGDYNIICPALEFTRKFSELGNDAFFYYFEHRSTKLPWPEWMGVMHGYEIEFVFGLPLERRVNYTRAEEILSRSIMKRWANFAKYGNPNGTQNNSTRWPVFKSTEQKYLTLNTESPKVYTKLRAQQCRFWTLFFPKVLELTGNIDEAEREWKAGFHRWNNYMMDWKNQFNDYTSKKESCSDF

Structure (SMILES)	IC50 (Cholinesterase [1])	IC50 (Acetylcholinesterase [2])	other results
COc1cc(/C=C/C(=O)NCCCCCCCCNc2c3c(nc4ccccc24)CCCC3)cc(OC)c1OCc1nc(C)c(C)nc1C	16.6 nM	145 nM	
Cc1nc(C)c(COc2ccc(CC(O)C(=O)NCCNc3c4c(nc5ccccc35)CCCC4)cc2OCc2nc(C)c(C)nc2C)nc1C (centres undefined)	816 nM	> 1000 nM	
Cc1nc(C)c(COc2ccc(/C=C/C(=O)NCCCCCCNc3c4c(nc5ccccc35)CCCC4)cc2OCc2nc(C)c(C)nc2C)nc1C	68.1 nM	136 nM	
Cc1nc(C)c(COc2ccc(/C=C/C(=O)NCCNc3c4c(nc5ccccc35)CCCC4)cc2)nc1C	589 nM	44.9 nM	
O=C(/C=C/c1ccc(O)cc1)NCCCCCCNc1c2c(nc3ccccc13)CCCC2	24.1 nM	44.6 nM	
COc1cc(/C=C/C(=O)NCCNc2c3c(nc4ccccc24)CCCC3)cc(OC)c1OCc1nc(C)c(C)nc1C	613 nM	65.3 nM	
Cc1nc(C)c(COc2ccc(/C=C/C(=O)NCCCCNc3c4c(nc5ccccc35)CCCC4)cc2OCc2nc(C)c(C)nc2C)nc1C	111 nM	139 nM	
Cc1nc(C)c(COc2ccc(/C=C/C(=O)NCCCNc3c4c(nc5ccccc35)CCCC4)cc2OCc2nc(C)c(C)nc2C)nc1C	199 nM	13.7 nM	
Cc1nc(C)c(COc2ccc(/C=C/C(=O)NCCCCCCNc3c4c(nc5ccccc35)CCCC4)cc2)nc1C	147 nM	304 nM	
O=C(/C=C/c1ccc(O)cc1)NCCCCNc1c2c(nc3ccccc13)CCCC2	29.8 nM	139 nM	
Cc1nc(C)c(COc2ccc(/C=C/C(=O)NCCCCCCCCNc3c4c(nc5ccccc35)CCCC4)cc2)nc1C	228 nM	264 nM	
COc1cc(/C=C/C(=O)NCCCCNc2c3c(nc4ccccc24)CCCC3)cc(OC)c1OCc1nc(C)c(C)nc1C	> 1000 nM	179 nM	
COc1cc(/C=C/C(=O)NCCCNc2c3c(nc4ccccc24)CCCC3)cc(OC)c1OCc1nc(C)c(C)nc1C	> 1000 nM	116 nM	
O=C(/C=C/c1ccc(O)cc1)NCCCCCCCCNc1c2c(nc3ccccc13)CCCC2	278 nM	522 nM	
O=C(/C=C/c1ccc(O)cc1)NCCNc1c2c(nc3ccccc13)CCCC2	302 nM	110 nM	
Cc1nc(C)c(COc2ccc(CC(O)C(=O)NCCCCCCCCNc3c4c(nc5ccccc35)CCCC4)cc2OCc2nc(C)c(C)nc2C)nc1C (centres undefined)	3.8 nM	65.1 nM	
COc1cc(/C=C/C(=O)NCCCCCCCCNc2c3c(nc4ccccc24)CCCC3)ccc1OCc1nc(C)c(C)nc1C	174 nM	304 nM	
COc1cc(/C=C/C(=O)NCCCNc2c3c(nc4ccccc24)CCCC3)ccc1OCc1nc(C)c(C)nc1C	22.6 nM	12.2 nM	

Structure (SMILES)	IC50 (Cholinesterase [1])	IC50 (Acetylcholinesterase [2])	other results
O=C(/C=C/c1ccc(O)cc1)NCCCNc1c2c(nc3ccccc13)CCCC2	43.3 nM	128 nM	
COc1cc(/C=C/C(=O)NCCNc2c3c(nc4ccccc24)CCCC3)ccc1OCc1nc(C)c(C)nc1C	502 nM	33.1 nM	
COc1cc(/C=C/C(=O)NCCNc2c3c(nc4ccccc24)CCCC3)cc(OC)c1O	> 1000 nM	101 nM	
COc1cc(/C=C/C(=O)NCCCNc2c3c(nc4ccccc24)CCCC3)cc(OC)c1O	330 nM	25.8 nM	
COc1cc(/C=C/C(=O)NCCCCNc2c3c(nc4ccccc24)CCCC3)cc(OC)c1O	241 nM	64.4 nM	
COc1cc(/C=C/C(=O)NCCCCCCNc2c3c(nc4ccccc24)CCCC3)cc(OC)c1OCc1nc(C)c(C)nc1C	28.6 nM	2.6 nM	IC50 (Acetylcholinesterase [3]): 108 nM; IC50 (Cholinesterase [4]): 577 nM; viability at 10 µM (PC-12 [5]): 11.2%; viability at 2.5 µM (PC-12 [6]): 37.7%; inhibition [7]: inactive; viability at 5 µM (PC-12 [8]): 15%
Cc1nc(C)c(COc2ccc(CC(O)C(=O)NCCCCNc3c4c(nc5ccccc35)CCCC4)cc2OCc2nc(C)c(C)nc2C)nc1C (centres undefined)	> 1000 nM	> 1000 nM	
COc1cc(/C=C/C(=O)NCCCCCCNc2c3c(nc4ccccc24)CCCC3)ccc1OCc1nc(C)c(C)nc1C	28.3 nM	14.7 nM	
Cc1c(C)c2c(c(C)c1O)CCC(C)(C(=O)O)O2 (centres undefined) [TROLOX]			viability at 10 µM (PC-12 [5]): 101%
COc1cc(/C=C/C(=O)NCCCCNc2c3c(nc4ccccc24)CCCC3)ccc1OCc1nc(C)c(C)nc1C	32.4 nM	188 nM	
Cc1nc(C)c(COc2ccc(/C=C/C(=O)NCCCCNc3c4c(nc5ccccc35)CCCC4)cc2)nc1C	2.3 nM	334 nM	
COc1cc(/C=C/C(=O)NCCCCCCCCNc2c3c(nc4ccccc24)CCCC3)cc(OC)c1O	9.3 nM	32.5 nM	
Cc1nc(C)c(COc2ccc(CC(O)C(=O)NCCCNc3c4c(nc5ccccc35)CCCC4)cc2OCc2nc(C)c(C)nc2C)nc1C (centres undefined)	165 nM	> 1000 nM	
Cc1nc(C)c(COc2ccc(/C=C/C(=O)NCCNc3c4c(nc5ccccc35)CCCC4)cc2OCc2nc(C)c(C)nc2C)nc1C	> 1000 nM	108 nM	
Cc1nc(C)c(COc2ccc(/C=C/C(=O)NCCCCCCCCNc3c4c(nc5ccccc35)CCCC4)cc2OCc2nc(C)c(C)nc2C)nc1C	61.8 nM	> 1000 nM	
Cc1nc(C)c(COc2ccc(CC(O)C(=O)NCCCCCCNc3c4c(nc5ccccc35)CCCC4)cc2OCc2nc(C)c(C)nc2C)nc1C (centres undefined)	1.3 nM	270 nM	
Cc1nc(C)c(COc2ccc(/C=C/C(=O)NCCCNc3c4c(nc5ccccc35)CCCC4)cc2)nc1C	5.2 nM	205 nM	
COc1cc(/C=C/C(=O)NCCCCCCNc2c3c(nc4ccccc24)CCCC3)cc(OC)c1O	24.3 nM	3.9 nM	Ratio IC50 (Acetylcholinesterase [9]): 2; IC50 (Acetylcholinesterase [3]): 65.2 nM; inhibition (Acetylcholinesterase [10]): Active; IC50 (Cholinesterase [4]): 48.8 nM; viability at 24 h, 5 µM (in vitro [11]): 94.9%; viability at 10 µM (PC-12 [5]): 107%; inhibition [12]: Active; viability at 24 h, 1.25 µM (in vitro [13]): 98.4%; viability at 24 h, 2.5 µM (in vitro [14]): 96.3%; viability at 48 h, 10 µM [15]: 131%; inhibition [16]: Dose-dependent effect; viability at 2.5 µM (PC-12 [6]): 92.4%; viability at 24 h, 10 µM (in vitro [17]): 81.8%; inhibition [18]: 48%; Activity (PC-12 [19]): Dose-dependent effect; viability at 5 µM (PC-12 [8]): 99.5%; inhibition [20]: 47%
